In patent US9726659B2, “CMPF as a biomarker for diabetes and associated methods” (The Governing Council of the University of Toronto, priority 2012, dated 2017):

How the values were obtained:
[1] = system: MIN6 cells; assay: Annexin V and propidium iodide staining for apoptosis and necrosis; format: cell-based, murine; details: 20 uM or 200 uM, 4 hrs
Protocol: A) MIN6 cells were treated for 4 hrs with 0 uM (EtOH vehicle control), 20 uM or 200 uM CMPF prior to being loaded with Annexin V and propidium iodide fluorescent dyes, and counterstained with Hoechst dye. […] B) Primary CD1 islets were dispersed and treated with vehicle control (0 CMPF, black), 20 uM CMPF (grey), or 200 uM CMPF (white) for 48 hours, then stained with Annexin V, Propidium Iodide and Hoechst dye. Quantification of double positive staining was assessed by an Arrayscan VTI HCS reader.
Next the mechanism underlying the observed impairment in GSIS following treatment with CMPF was investigated. To determine whether CMPF was inhibiting GSIS by inducing beta cell apoptosis, Annexin V and Propidium Iodide staining was performed in MIN6 cells treated with vehicle (EtOH), 20 uM or 200 uM CMPF for 4 hrs to look for apoptosis and necrosis respectively. […] MIN6 cells treated with 5 mM H2O2 for 3 hrs were used as a positive control (FIG. 4).

[2] = system: murine islets; assay: Total insulin content in murine islets; format: cell-based; details: 200 uM
Protocol: Murine islets were treated for 24 hrs with vehicle control (0 CMPF), 20 uM (20 CMPF), or 200 uM (200 CMPF) CMPF, and assessed for total insulin content and mRNA expression. […] Decreased expression of insulin processing enzymes PCSK1, 2 and CpE (F), (G), (H) indicate that CMPF may also impair post-translational insulin processing. Finally, CMPF causes decreased expression of the beta cell glucose transporter GLUT2, and GCK, the rate-limiting enzyme critical for glucose metabolism (I) and (J), perhaps impairing glucose sensing and metabolism. In all cases n=4, *P<0.05.
In the absence of apoptosis and necrosis, CMPF must be impairing GSIS by causing beta cell dysfunction. First, the effect of CMPF treatment on insulin biosynthesis was investigated to determine if insulin is available to be released upon stimulation. MIN6, murine and human islets were treated with vehicle control, 20 uM and 200 uM CMPF for 4 hrs (MIN6) or 24 hrs (islets), and total insulin content measured. […] Lower total insulin content may be due to either defective insulin processing from proinsulin to mature insulin, or insufficient insulin transcription. To determine the mechanism through which CMPF is reducing total insulin content, quantitative PCR (qPCR) was performed on RNA that was isolated from murine islets treated with either vehicle control or 200 uM CMPF for 24 hrs.

[3] = system: CD1 mice; assay: IP injection for 3 or 7 days: monitoring, fasting values, OGTT, ipITT; format: in vivo; details: for fasting blood glucose / fasting plasma insulin / glucose tolerance (OGTT) / insulin secretion during OGTT: 14 hr fast
Protocol: CD1 mice were injected IP with either vehicle control (black) or CMPF (white). A) Plasma samples were taken at 10, 30, 60, 120 and 360 minutes post-IP injection and assayed for CMPF. […] Over the 3-day course of IP injections, mice were monitored for body weight (B), random-fed blood glucose (C) and plasma insulin (C). There was no difference in any of these parameters. Following 3 consecutive days of CMPF injections, mice were fasted for 14 hrs and OGTTs were performed.
CD1 mice were injected IP with either vehicle control (black) or CMPF (white). Over the 7-day course of IP injections, mice were monitored for body weight (A), and random-fed blood glucose (B) and plasma insulin (C). […] The lower body weights on day 8 are following a 14-hour fast, immediately prior to the OGTTs. Following 7 consecutive days of CMPF injections, mice were fasted for 14 hrs and OGTTs were performed. […] (n=8 per group, p<0.05).
To investigate the effect of CMPF on glucose homeostasis, (FIG. 8C). […] Therefore, elevated plasma CMPF concentrations cause impaired beta cell function and prevent GSIS in vivo, resulting in glucose intolerance. Chronically elevated CMPF levels may also induce insulin resistance. […]

[4] = system: mouse islets; assay: Microarray analysis of 24 hr treated islets; format: cell-based; details: 24 hr treatment
Protocol: A) Expression of insulin, insulin processing enzymes, insulin transcription factors and glucose-sensing genes in 24-hour treated islets (N=5-6/group). B) MMP following 24-hour incubation with control or 200 μM CMPF, and change in fluorescence (N=4/group). […] Values are mean+/−SEM. Student's t-test (a,c), one-way ANOVA (b). *P<0.05, **P<0.01
Total RNA was extracted from 24 hour vehicle or CMPF-treated islets using the Qiagen RNeasy Plus mini kit (Hilden, Germany). Microarray analysis was performed as previously described (Basford et al. 2012) using the Affymetrix Mouse 430 2.0 Gene Chip at the University Health Network microarray center (Toronto, Canada). Significant changes were defined as P<0.05. Microarray data will be available on the NCBI GEO database at the time of publication. Human islet microarray data can be found at GE040709. Reverse transcription from total RNA and quantitative real time PCR (qPCR) analysis was performed as previously described (Basford et al. 2012). Primers were designed using Primer3 software (NCBI). Data were normalized to beta actin mRNA.
Given that CMPF causes hyperinsulinemia during the fed-state in vivo, and exaggerated secretion of insulin from islets under non-stimulatory conditions in vitro, we rationalized that there must be a defect in glucose-sensing and/or secretion of insulin that could not be solely explained by effects on insulin production. […] To confirm changes in mitochondrial function, 24 hr CMPF treated islets were analyzed by microarray. […] When organized based on biological process, the largest differentially expressed cluster encompassed genes involved in metabolism (38%) (FIG. 17c). […] Such a switch can decrease the beta-cell's ability to sense and metabolize glucose, limiting their capacity for GSIS thus may explain CMPF's effect on beta-cells (Hue et al., 2009).

[5] = after seven days of IP injection
[6] = after three days of IP injection

total DNA [2]: absence of changes
Compound: CCCc1oc(CCC(=O)O)c(C(=O)O)c1C [CMPF, 3-carboxy-4-methyl-5-propyl-2-furanpropanoic acid]
Annexin V and propidium iodide staining (apoptosis, necrosis) [1]: No significant staining | total insulin content ([2]; 24 hrs, vs vehicle): significantly reduced | body weight ([3]; 3-day course of IP injections): no difference | random-fed blood glucose ([3]; 3-day course of IP injections): no difference | random-fed plasma insulin ([3]; 3-day course of IP injections): no difference | body weight ([3]; 7-day course of IP injections): no difference | random-fed blood glucose ([3]; 7-day course of IP injections): no difference | fasting blood glucose [3, 5]: significantly higher | fasting plasma insulin [3, 5]: significantly higher | fasting blood glucose [3, 6]: significantly higher | fasting plasma insulin [3, 6]: significantly lower | glucose tolerance (OGTT) ([3]; after 3 days of IP injection): impaired glucose tolerance | insulin secretion during OGTT ([3]; after 3 days of IP injection): significantly impaired insulin secretion | glucose tolerance (OGTT) ([3]; after 7 days of IP injection): significantly impaired glucose tolerance | insulin secretion during OGTT ([3]; after 7 days of IP injection): significantly impaired insulin secretion | random-fed plasma insulin ([3]; days 4-7 of injections): significantly elevated | fed-state glucagon ([3]; seven-day treatment): hyperglucagonemia | insulin sensitivity by insulin-tolerance testing (ipITT) ([3]; seven-day treatment, vs vehicle): no significant difference | genes related to fat oxidation [4]: significant upregulation | share of differentially expressed genes in the metabolism cluster [4]: 38% | transcripts significantly differentially expressed [4]: 6.2%
